# Reference: US20090137577A1, “HETEROCYCLIC COMPOUNDS” (Pfizer Inc., priority 2007, published 2009)
# Target: T1, mGluR2 receptor (metabotropic glutamate receptor 2) (Homo sapiens, UniProt Q14416)
# T1 construct: expressed in transfected cells
# Assay: mGluR2 potentiator screen (FLIPR, EC10-EC20 glutamate challenge);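 also: HEK cells stably expressing human mGluR2 with GL15 G protein, Fluo-4 calcium fluorescence read on FLIPR, compounds added before an EC10-EC20 glutamate challenge to detect potentiation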
# Assay type: cell-based
# Settings: geometric mean; read-out: mGluR 2 EC50 (geometric mean)
# T1 sequence (Q14416 19-872, species assumed): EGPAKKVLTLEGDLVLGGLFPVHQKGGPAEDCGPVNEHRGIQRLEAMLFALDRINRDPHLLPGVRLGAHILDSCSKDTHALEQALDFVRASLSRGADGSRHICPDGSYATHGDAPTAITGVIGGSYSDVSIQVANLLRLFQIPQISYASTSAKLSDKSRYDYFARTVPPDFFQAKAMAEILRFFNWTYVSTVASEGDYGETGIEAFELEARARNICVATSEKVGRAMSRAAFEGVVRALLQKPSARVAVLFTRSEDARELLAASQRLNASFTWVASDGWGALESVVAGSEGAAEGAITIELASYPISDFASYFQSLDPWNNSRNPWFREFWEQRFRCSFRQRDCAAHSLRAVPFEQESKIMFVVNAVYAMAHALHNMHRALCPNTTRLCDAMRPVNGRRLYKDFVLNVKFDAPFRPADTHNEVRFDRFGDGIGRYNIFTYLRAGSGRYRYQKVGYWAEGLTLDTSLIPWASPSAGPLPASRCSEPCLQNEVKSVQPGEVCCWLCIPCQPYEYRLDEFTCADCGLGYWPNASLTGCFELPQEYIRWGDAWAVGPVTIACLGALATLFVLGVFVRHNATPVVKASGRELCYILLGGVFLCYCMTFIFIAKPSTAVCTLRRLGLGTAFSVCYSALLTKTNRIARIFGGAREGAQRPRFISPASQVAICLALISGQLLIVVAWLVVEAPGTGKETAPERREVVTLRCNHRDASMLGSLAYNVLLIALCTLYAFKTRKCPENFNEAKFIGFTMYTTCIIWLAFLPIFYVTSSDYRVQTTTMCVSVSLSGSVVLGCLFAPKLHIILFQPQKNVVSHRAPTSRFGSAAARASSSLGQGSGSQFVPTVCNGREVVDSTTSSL
row,EC50,SMILES
1,761 nM,O=C1OC[C@@H]2CCCC[C@@H]2N1Cc1ccc(OCC2CCC2)cc1 [Example 1]
2,637 nM,CC(C)COc1ccc(CN2C(=O)OC[C@H]3CCCC[C@H]32)cc1 [Example 2]
3,361 nM,CCCOc1ccc(CN2CC(c3ccccc3)OC2=O)cc1 (stereo not drawn) [Example 3]
4,647 nM,O=C1OC[C@@H]2CCCC[C@@H]2N1Cc1ccc(OCc2ccccc2)cc1 [Example 4]
5,1280 nM,O=C1OC(c2ccccc2)CN1Cc1ccc(OCc2ccccn2)cc1 (stereo not drawn) [Example 5]
6,151 nM,CC(C)COc1ccc(CN2CC(c3ccccc3)OC2=O)cc1 (stereo not drawn) [Example 6]
7,220 nM,O=C1OC(c2ccccc2)CN1Cc1ccc(OCC2CCCCC2)cc1 (stereo not drawn) [Example 7]
8,153 nM,O=C1OC(c2ccccc2)CN1Cc1ccc(OCc2ccccc2)cc1 (stereo not drawn) [Example 8]
9,135 nM,O=C1OC(c2ccccc2)CN1Cc1ccc(OCC2CCC2)cc1 (stereo not drawn) [Example 9]
10,395 nM,O=C1OC(c2ccccc2)CN1Cc1ccc(OCCC2CCCCC2)cc1 (stereo not drawn) [Example 10]
11,699 nM,O=C1OCCN1Cc1ccc(OCCC2CCCCC2)cc1 [Example 11]
12,218 nM,O=C1OC(c2ccccc2)CN1Cc1ccc(OCc2cccnc2)cc1 (stereo not drawn) [Example 13]
13,178 nM,CC1CN(Cc2ccc(OCC3CCC3)cc2)C(=O)O1 (stereo not drawn) [Example 14]
14,935 nM,CC1(C)COC(=O)N(Cc2ccc(OCC3CCC3)cc2)C1 [Example 15]
15,663 nM,CC(C)COc1ccc(CN2CC(C)(C)COC2=O)cc1 [Example 16]
16,696 nM,CC1(C)COC(=O)N(Cc2ccc(OCC3CCCCC3)cc2)C1 [Example 17]
17,979 nM,CC(C)COc1ccc(CN2CC(C)OC2=O)cc1 (stereo not drawn) [Example 20]
18,819 nM,CC1(C)COC(=O)N(Cc2ccc(OCc3ccccc3)cc2)C1 [Example 21]
19,887 nM,CCCOc1ccc(CN2C(=O)O[C@H](c3ccccc3)[C@@H]2C)cc1 [Example 23]
20,660 nM,C[C@H]1[C@@H](c2ccccc2)OC(=O)N1Cc1ccc(OCC2CCC2)cc1 [Example 24]
21,1760 nM,C[C@H]1[C@@H](c2ccccc2)OC(=O)N1Cc1ccc(OCc2ccccn2)cc1 [Example 25]
22,542 nM,CC(C)COc1ccc(CN2C(=O)O[C@H](c3ccccc3)[C@@H]2C)cc1 [Example 26]
23,1140 nM,C[C@H]1[C@@H](c2ccccc2)OC(=O)N1Cc1ccc(OCC2CCCCC2)cc1 [Example 27]

row,EC50,SMILES
1,1240 nM,O=C1OCCCN1Cc1ccc(OCC2CCC2)cc1 [Example 28]
2,467 nM,C[C@H]1[C@@H](c2ccccc2)OC(=O)N1Cc1ccc(OCc2ccccc2)cc1 [Example 29]
3,987 nM,C[C@H]1[C@@H](c2ccccc2)OC(=O)N1Cc1ccc(OCCC2CCCCC2)cc1 [Example 30]
4,1250 nM,O=C1OCCCN1Cc1ccc(OCc2ccccc2)cc1 [Example 31]
5,245 nM,C[C@H]1[C@@H](c2ccccc2)OC(=O)N1Cc1ccc(OCc2cccnc2)cc1 [Example 32]
6,282 nM,O=C1OCCCN1Cc1ccc(OCCC2CCCCC2)cc1 [Example 34]
7,884 nM,CC(Oc1ccc(CN2C(=O)OC[C@@H]3CCCC[C@@H]32)cc1)c1ccccc1 (stereo partly drawn) [Example 35]
8,571 nM,O=C1OC(c2ccccc2)CN1Cc1ccc(OC2CCOCC2)cc1 (stereo not drawn) [Example 36]
9,2020 nM,CC(Oc1ccc(CN2C(=O)OC[C@@H]3CCCC[C@@H]32)cc1)C1CCCCC1 (stereo partly drawn) [Example 37]
10,127 nM,CC(Oc1ccc(CN2CC(c3ccccc3)OC2=O)cc1)C1CCCCC1 (stereo not drawn) [Example 38]
11,244 nM,CC(Oc1ccc(CN2CC(c3ccccc3)OC2=O)cc1)c1ccccc1 (stereo not drawn) [Example 39]
12,155 nM,O=C1OC(c2ccccc2)CN1Cc1ccc(OC2CCCCC2)cc1 (stereo not drawn) [Example 40]
13,386 nM,O=C1OC[C@@H]2CCCC[C@@H]2N1Cc1ccc(OC2CCCCC2)cc1 [Example 41]
14,677 nM,CC(Oc1ccc(CN2CCOC2=O)cc1)C1CCCCC1 (stereo not drawn) [Example 42]
15,336 nM,CC1(C)COC(=O)N(Cc2ccc(OC3CCCCC3)cc2)C1 [Example 43]
16,572 nM,CC(C)Oc1ccc(CN2CC(c3ccccc3)OC2=O)cc1 (stereo not drawn) [Example 44]
17,213 nM,CC(Oc1ccc(CN2CC(C)(C)COC2=O)cc1)c1ccccc1 (stereo not drawn) [Example 45]
18,151 nM,CC1CN(Cc2ccc(OC(C)c3ccccc3)cc2)C(=O)O1 (stereo not drawn) [Example 46]
19,247 nM,CC(Oc1ccc(CN2CC(C)(C)COC2=O)cc1)C1CCCCC1 (stereo not drawn) [Example 47]
20,263 nM,CC(Oc1ccc(CN2C(=O)O[C@H](c3ccccc3)[C@@H]2C)cc1)c1ccccc1 (stereo partly drawn) [Example 50]
21,356 nM,C[C@H]1[C@@H](c2ccccc2)OC(=O)N1Cc1ccc(OC2CCCCC2)cc1 [Example 56]
22,< 40.8 nM,"CC(C)Oc1ccc(-c2ccc(CN3C[C@@H](C)OC3=O)cc2)cc1 [Example 57, (5R)-3-[(4′-isopropoxybiphenyl-4-yl)methyl]-5-methyl-1,3-oxazolidin-2-one]"
23,105 nM,"CC(C)Oc1ccc(-c2ccc(CN3C[C@H](C)OC3=O)cc2)cc1 [Example 58, (5S)-3-[(4′-isopropoxybiphenyl-4-yl)methyl]-5-methyl-1,3-oxazolidin-2-one]"

row,EC50,SMILES
1,141 nM,"C[C@H]1CN(Cc2ccc(-c3ccc(C(F)(F)F)cc3)cc2)C(=O)O1 [Example 63, (5S)-5-methyl-3-{[4′-(trifluoromethyl)biphenyl-4-yl]methyl}-1,3-oxazolidin-2-one]"
2,61 nM,"C[C@@H]1CN(Cc2ccc(-c3ccc(C(F)(F)F)cc3)cc2)C(=O)O1 [Example 64, (5R)-5-methyl-3-{[4′-(trifluoromethyl)biphenyl-4-yl]methyl}-1,3-oxazolidin-2-one]"
3,240 nM,"C[C@@H]1CN(Cc2ccc(O[C@H](C)c3ccccc3)cc2)C(=O)O1 [Example 67, (5R)-5-methyl-3-{4-[(1R)-1-phenylethoxy]benzyl}-1,3-oxazolidin-2-one]"
4,299 nM,C[C@H]1CN(Cc2ccc(O[C@H](C)c3ccccc3)cc2)C(=O)O1 [Example 68]
5,173 nM,C[C@@H]1CN(Cc2ccc(O[C@@H](C)c3ccccc3)cc2)C(=O)O1 [Example 69]
6,209 nM,C[C@H](Oc1ccc(CN2C[C@H](C)OC2=O)cc1)c1ccccc1 [Example 70]
7,498 nM,C[C@@H]1CN(Cc2ccc(-c3cccc(C#N)c3)cc2)C(=O)O1 [Example 85]
8,1380 nM,"C[C@@H]1CN(Cc2ccc3c(c2)CCC(C)(C)O3)C(=O)O1 [Example 87, (5R)-3-[(2,2-Dimethyl-3,4-dihydro-2H-chromen-6-yl)methyl]-5-methyl-1,3-oxazolidin-2-one]"
9,66.6 nM,CC1CN(Cc2ccc(OCc3ccc(Cl)cc3F)cc2)C(=O)O1 (stereo not drawn) [Example 88]
10,69.2 nM,CC1CN(Cc2ccc(OCc3ccc(Cl)cc3)cc2)C(=O)O1 (stereo not drawn) [Example 89]
11,25.5 nM,CC1CN(Cc2ccc(OCC3CCCC3)cc2)C(=O)O1 (stereo not drawn) [Example 90]
12,152 nM,CC1CN(Cc2ccc(OCc3cc(F)cc(F)c3)cc2)C(=O)O1 (stereo not drawn) [Example 91]
13,10.8 nM,CC1CN(Cc2ccc(OCCC3CCCC3)cc2)C(=O)O1 (stereo not drawn) [Example 92]
14,187 nM,CC1CN(Cc2ccc(OCCC3CC3)cc2)C(=O)O1 (stereo not drawn) [Example 93]
15,42 nM,CCC(C)CCOc1ccc(CN2CC(C)OC2=O)cc1 (stereo not drawn) [Example 94]
16,723 nM,CC1CN(Cc2ccc(OCC3(C)CC3)cc2)C(=O)O1 (stereo not drawn) [Example 95]
17,< 14.9 nM,CC1CN(Cc2ccc(OCCC(C)(C)C)cc2)C(=O)O1 (stereo not drawn) [Example 96]
18,823 nM,CC1CN(Cc2ccc(OCc3nc4ccccc4n3C(C)C)cc2)C(=O)O1 (stereo not drawn) [Example 97]
19,7.07 nM,COc1ccc(CCCOc2ccc(CN3CC(C)OC3=O)cc2)cc1 (stereo not drawn) [Example 98]
20,115 nM,CC1CN(Cc2ccc(OCCc3cccc(Cl)c3)cc2)C(=O)O1 (stereo not drawn) [Example 99]
21,55.9 nM,CC[C@H](C)COc1ccc(CN2CC(C)OC2=O)cc1 (stereo partly drawn) [Example 100]
22,188 nM,CC1CN(Cc2ccc(OCCc3cccc(F)c3)cc2)C(=O)O1 (stereo not drawn) [Example 101]
23,282 nM,CC1CN(Cc2ccc(OCCc3ccccc3)cc2)C(=O)O1 (stereo not drawn) [Example 102]

row,EC50,SMILES
1,221 nM,COc1cccc(COc2ccc(CN3CC(C)OC3=O)cc2)c1 (stereo not drawn) [Example 103]
2,37.9 nM,CC1CN(Cc2ccc(OCCCc3ccccc3)cc2)C(=O)O1 (stereo not drawn) [Example 104]
3,217 nM,COc1cccc(CCOc2ccc(CN3CC(C)OC3=O)cc2)c1 (stereo not drawn) [Example 105]
4,73.7 nM,CC1CN(Cc2ccc(OCc3c(F)cccc3F)cc2)C(=O)O1 (stereo not drawn) [Example 106]
5,273 nM,Cc1oc(-c2ccccc2)nc1CCOc1ccc(CN2CC(C)OC2=O)cc1 (stereo not drawn) [Example 107]
6,91.2 nM,CC1CN(Cc2ccc(OCc3cccc(Cl)c3)cc2)C(=O)O1 (stereo not drawn) [Example 108]
7,219 nM,CC1CN(Cc2ccc(OCCc3ccc(C#N)cc3)cc2)C(=O)O1 (stereo not drawn) [Example 109]
8,243 nM,CC1CN(Cc2ccc(OCc3ccc(F)cc3)cc2)C(=O)O1 (stereo not drawn) [Example 110]
9,48.3 nM,CC1CN(Cc2ccc(OC[C@@H](C)c3ccccc3)cc2)C(=O)O1 (stereo partly drawn) [Example 111]
10,138 nM,CC1CN(Cc2ccc(OCc3ccccc3F)cc2)C(=O)O1 (stereo not drawn) [Example 112]
11,244 nM,COc1cc(COc2ccc(CN3CC(C)OC3=O)cc2)cc(OC)c1 (stereo not drawn) [Example 113]
12,25.7 nM,CCOc1ccccc1COc1ccc(CN2CC(C)OC2=O)cc1 (stereo not drawn) [Example 114]
13,71.8 nM,CC1CN(Cc2ccc(OCc3ccc(F)cc3Cl)cc2)C(=O)O1 (stereo not drawn) [Example 115]
14,934 nM,CC1CN(Cc2ccc(OCCCc3ccncc3)cc2)C(=O)O1 (stereo not drawn) [Example 116]
15,34.5 nM,CC1CN(Cc2ccc(OCc3ccccc3Cl)cc2)C(=O)O1 (stereo not drawn) [Example 117]
16,89.4 nM,COc1ccccc1COc1ccc(CN2CC(C)OC2=O)cc1 (stereo not drawn) [Example 118]
17,164 nM,CCOc1ccc(COc2ccc(CN3CC(C)OC3=O)cc2)cc1 (stereo not drawn) [Example 119]
18,1150 nM,CC1CN(Cc2ccc(OCCCc3cccnc3)cc2)C(=O)O1 (stereo not drawn) [Example 120]
19,434 nM,CC1CN(Cc2ccc(OCCOc3ccccc3)cc2)C(=O)O1 (stereo not drawn) [Example 121]
20,40.7 nM,CC1CN(Cc2ccc(OC(C)Cc3ccccc3)cc2)C(=O)O1 (stereo not drawn) [Example 122]
21,22.6 nM,CC1CN(Cc2ccc(O[C@H]3C[C@H]4CC[C@@H]3C4)cc2)C(=O)O1 (stereo partly drawn) [Example 123]
